Data set [1] deals with Hepatitis B virus. As to the kind of experiment: Antiviral activity against HBV infected in human HepG2.2.15 cells assessed as reduction in HBsAg level in cellular supernatant by luminescence based microplate reader analysis. The format is functional, organism-based.
Data set [2] in a line: Cytotoxicity against human HepG2.2.15 cells assessed as reduction in cell viability incubated for 6 days by CCK-8 assay. In kind it is toxicity, cell-based, HepG2 2.2.15. The conditions noted are these: for CC50 at 144 h: time 6 day. (Tetrazolium dyes change colour on reduction, which living cells bring about.)
Data set [3] has as its system Hepatitis B virus. Kind of data set: Antiviral activity against HBV infected in human HepG2.2.15 cells assessed as reduction in HBeAg level in cellular supernatant by luminescence based microplate reader analysis. The format is functional, organism-based.
Data set [4] relates to Hepatitis B virus. As to the kind of experiment: Antiviral activity against HBV infected in human HepG2.2.15 cells assessed as reduction in intracellular core HBV DNA level incubated for 6 days by qPCR analysis. The conditions noted are these: HepG2.2.15, 144 h. In kind it is functional, organism-based.
The nature of data set [5]: MRT (0 to t) in BALB/c mouse at 10 mg/kg, po measured up to 24 hrs by HPLC analysis. The format is ADME, organism-based. The conditions noted are these: in vivo.
The nature of data set [6]: AUC (0 to t) in BALB/c mouse at 10 mg/kg, po measured up to 24 hrs by HPLC analysis. The format is ADME, organism-based. On the set-up: dose 10 mg/kg, time < 24 hrs, route po. The conditions noted are these: in vivo.
Data set [7] can be described thus: Cmax in BALB/c mouse at 10 mg/kg, po measured up to 24 hrs by HPLC analysis. On the set-up: dose 10 mg/kg, time < 24 hrs, route po. In kind it is ADME, organism-based. The conditions noted are these: in vivo.
A short description of data set [8]: Elimination half life in BALB/c mouse at 10 mg/kg, po measured up to 24 hrs by HPLC analysis. The format is ADME, organism-based. The conditions noted are these: in vivo, read-out: beta t1/2 (converted).
A short description of data set [9]: Tmax in BALB/c mouse at 10 mg/kg, po measured up to 24 hrs by HPLC analysis. The format is ADME, organism-based. The conditions noted are these: in vivo.

From ChEMBL document CHEMBL5137052, “Identification of dihydroquinolizinone derivatives with cyclic ether moieties as new anti-HBV agents” (Eur J Med Chem, 2022) come the findings set out here.

What is called IC50 is the concentration that inhibits the measured activity by half. For orientation: CC50 means the concentration giving 50% cytotoxicity. As usually defined, the EC50 is the midpoint of the concentration-response curve. Usually MRT last stands for the average time that molecules of a dose stay in the body. The term AUC(0-t) denotes the area under the concentration-time curve up to a stated or last time point. A lower AUC(0-t) goes with less exposure. As usually defined, the Cmax is the maximum level reached in the sampled fluid or tissue. As usually defined, the Tmax is the time at which the peak concentration occurs.

Take `COc1cc2c(cc1OCCC1COc3ccccc3O1)CC(C(C)C)n1cc(C(=O)O)c(=O)cc1-2` (stereo not given): the IC50 in data set [1] is 18.4 nM; in data set [3], 16.4 nM; in data set [4], 1.2 nM. Also, the CC50 at 144 h in [2] worked out at 11600 nM.

Regarding `COc1cc2c(cc1OCC1COc3cccc(F)c3O1)CC(C(C)C)n1cc(C(=O)O)c(=O)cc1-2` (stereo not given), the results for the IC50 in [1], in data set [3] and in data set [4] were 1.6 nM, 57.3 nM and 37.2 nM, respectively. The CC50 at 144 h in data set [2] turned out to be 21500 nM.

As to `COc1cc2c(cc1OC[C@H]1CCCO1)C[C@H](C(C)C)n1cc(C(=O)O)c(=O)cc1-2`, the EC50 in data set [1] was determined as 3.5 nM; in [3], 3380 nM; in data set [4] it was 37.5 nM.

On to `COc1cc2c(cc1OCC1COc3ccc(F)cc3O1)CC(C(C)C)n1cc(C(=O)O)c(=O)cc1-2` (stereo not given), for which the MRT last at 24 h in data set [5] was 112 min. Besides, the IC50 worked out at 0.2 nM in [1], 15.4 nM in [3] and 5.7 nM in [4]. Moreover, the AUC(0-t) at 24 h in [6] was determined as 3.38 µM·h. Moreover, in [2], the CC50 at 144 h came out at 34700 nM. Further, in data set [7], the Cmax was found to be 1440 nM. Moreover, the half-life in [8] is 101 min. Also, the Tmax in data set [9] amounted to 60 min.

With `COc1cc2c(cc1OCC1COc3ccc(C)cc3O1)CC(C(C)C)n1cc(C(=O)O)c(=O)cc1-2` (stereo not given), the figures for the IC50 in data set [1], in [3] and in data set [4] were 7.5 nM, 328 nM and 17.9 nM, respectively. In addition, in [2], the CC50 at 144 h was found to be 34700 nM.

As for `COc1cc2c(cc1OCC1CCOC1)CC(C(C)C)n1cc(C(=O)O)c(=O)cc1-2` (stereo not given), the IC50 in data set [1] was determined as 1.1 nM; in data set [3], 56.2 nM; in [4] it was 0.6 nM. Also, the CC50 at 144 h in [2] was greater than 50000 nM.

In data set [5], `COc1cc2c(cc1OCC1COc3cccnc3O1)CC(C(C)C)n1cc(C(=O)O)c(=O)cc1-2` (stereo not given) displayed an MRT last at 24 h of 52.8 min. Moreover, the IC50 in data set [1] was 1.9 nM; in data set [3], 94.9 nM; in data set [4], 0.5 nM. The molecule also came in with an AUC(0-t) at 24 h in data set [6] of 2.38 µM·h. Besides, the CC50 at 144 h in [2] is greater than 50000 nM. In data set [7], this molecule came in with a Cmax of 2910 nM. Besides, the half-life in [8] is 43.2 min. Further, the Tmax in [9] was 30 min.

For the molecule `COc1cc2c(cc1OCC1COc3cc(F)ccc3O1)CC(C(C)C)n1cc(C(=O)O)c(=O)cc1-2` (stereo not given), the IC50 was 18.4 nM in [1], 22.7 nM in data set [3] and 15.5 nM in data set [4]. Besides, in data set [2], the CC50 at 144 h was found to be 11600 nM.

Turning to `COc1cc2c(cc1OC(C)c1ccc3c(c1)OCO3)CC(C(C)C)n1cc(C(=O)O)c(=O)cc1-2` (stereo not given), the results for the IC50 in data set [1], in data set [3] and in data set [4] were 1.2 nM, greater than 1000 nM and 181 nM, respectively. The CC50 at 144 h in data set [2] was greater than 50000 nM.

As for `COc1cc2c(cc1OCC1COc3cc(C)ccc3O1)CC(C(C)C)n1cc(C(=O)O)c(=O)cc1-2` (stereo not given), the IC50 in data set [1] came out at 3.5 nM; in data set [3] it was 179 nM; in data set [4] it was 10.1 nM. For the same molecule, in data set [2], the CC50 at 144 h is 11600 nM.

With `COc1cc2c(cc1OCC1COc3ccc(Cl)cc3O1)CC(C(C)C)n1cc(C(=O)O)c(=O)cc1-2` (stereo not given), the figures for the IC50 in data set [1], in data set [3] and in [4] were 7.7 nM, 86.5 nM and 5.7 nM, respectively. Moreover, the half-maximal cytotoxic concentration (CC50) at 144 h in data set [2] worked out at 11600 nM.

Take `COc1cc2c(cc1OCC1COc3ccccc3O1)CC(C(C)C)n1cc(C(=O)O)c(=O)cc1-2` (stereo not given): the IC50 in [1] is 1.5 nM; in data set [3], 2 nM; in [4], 12.1 nM. In [2], the IC50 at 6 days amounted to 21500 nM.

Regarding `COc1cc2c(cc1OCC1COc3cccc(Cl)c3O1)CC(C(C)C)n1cc(C(=O)O)c(=O)cc1-2` (stereo not given), the results for the IC50 in data set [1], in data set [3] and in data set [4] were 3.4 nM, 53.2 nM and 4.3 nM, respectively. Further, the CC50 at 144 h in data set [2] came to 11600 nM.

With `COCCCOc1cc2c(cc1OC)-c1cc(=O)c(C(=O)O)cn1[C@@H](C(C)C)C2`, the results for the 50% effective concentration (EC50) in data set [1], in data set [3] and in [4] were 928 nM, 3270 nM and 75.8 nM, respectively.

On to `COc1cc2c(cc1OCC1COc3cc(Cl)ccc3O1)CC(C(C)C)n1cc(C(=O)O)c(=O)cc1-2` (stereo not given), for which the IC50 in data set [1] is 3.7 nM; in data set [3] it was 39.5 nM; in [4], 9.1 nM. In addition, the CC50 at 144 h in data set [2] is 10600 nM.

Turning to `COc1cc2c(cc1OCC1COc3c(Cl)cccc3O1)CC(C(C)C)n1cc(C(=O)O)c(=O)cc1-2` (stereo not given), the IC50 in data set [1] worked out at 1.2 nM; in [3], 21 nM; in [4] it was 4.2 nM. The CC50 at 144 h in [2] is 11600 nM.

For `COc1cc2c(cc1OC[C@H]1COc3cccnc3O1)C[C@H](C(C)C)n1cc(C(=O)O)c(=O)cc1-2`, the concentration giving a half-maximal response (EC50) in data set [1] was 3080 nM; in data set [3], 12800 nM; in [4], 3080 nM.

Turning to `COc1cc2c(cc1OCc1ccc3c(c1)OCO3)C[C@H](C(C)C)n1cc(C(=O)O)c(=O)cc1-2`, the EC50 was determined as 239 nM in [1], 2030 nM in data set [3] and 124 nM in data set [4].

Take `COc1ccc(COc2cc3c(cc2OC)-c2cc(=O)c(C(=O)O)cn2C(C(C)C)C3)cc1OC` (stereo not given): the IC50 in data set [1] worked out at 1.1 nM; in data set [3], 158 nM; in [4] it was 11.2 nM. For the same molecule, in [2], the CC50 at 144 h is greater than 50000 nM.

For `COc1ccc2c(c1)OCC(COc1cc3c(cc1OC)-c1cc(=O)c(C(=O)O)cn1C(C(C)C)C3)O2` (stereo not given), the figures for the IC50 in [1], in data set [3] and in [4] were 403 nM, greater than 1000 nM and 52 nM, respectively. In addition, the CC50 at 144 h in data set [2] is greater than 50000 nM.

Take `COc1cc2c(cc1OCC1COc3ccc([N+](=O)[O-])cc3O1)CC(C(C)C)n1cc(C(=O)O)c(=O)cc1-2` (stereo not given): the IC50 in data set [1] was determined as 4.6 nM; in data set [3], 18.2 nM; in data set [4] it was 16.5 nM. The CC50 at 144 h in data set [2] amounted to 50000 nM.

`COc1cc2c(cc1OCc1ccc3c(c1)OCCO3)CC(C(C)C)n1cc(C(=O)O)c(=O)cc1-2` (stereo not given): the IC50 in data set [1] amounted to 0.2 nM; in [3] it was 10.2 nM; in data set [4] it was 13.4 nM. The CC50 at 144 h in data set [2] is 34700 nM.

As to `COc1ccc2c(c1)OC(COc1cc3c(cc1OC)-c1cc(=O)c(C(=O)O)cn1C(C(C)C)C3)CO2` (stereo not given), the IC50 in [1] was 1.7 nM; in [3] it was greater than 1000 nM; in data set [4] it was 8.1 nM. Also, the CC50 at 144 h in [2] came to 31900 nM.

`COc1cc2c(cc1OC[C@@H]1CCCO1)C[C@H](C(C)C)n1cc(C(=O)O)c(=O)cc1-2`: the EC50 stood at 1.2 nM in data set [1], 2010 nM in data set [3] and 119 nM in data set [4].

In the case of `COc1cc2c(cc1OCC1COc3ccc(Br)cc3O1)CC(C(C)C)n1cc(C(=O)O)c(=O)cc1-2` (stereo not given), the IC50 was 24.5 nM in data set [1], 127 nM in data set [3] and 13.4 nM in data set [4]. Moreover, the CC50 at 144 h in data set [2] is 11600 nM.

On to `COc1cc2c(cc1OCC1COc3cc(Br)ccc3O1)CC(C(C)C)n1cc(C(=O)O)c(=O)cc1-2` (stereo not given), for which the IC50 is 34.3 nM in data set [1], greater than 1000 nM in data set [3] and 36.9 nM in data set [4]. In addition, the CC50 at 144 h in data set [2] stood at 34700 nM.

Regarding `COc1cc2c(cc1OCC1COc3c(F)cccc3O1)CC(C(C)C)n1cc(C(=O)O)c(=O)cc1-2` (stereo not given), the IC50 in data set [1] stood at 1.5 nM; in [3] it was 20.6 nM; in data set [4], 29 nM. Further, the CC50 at 144 h in [2] came to 16700 nM.

`COc1cc2c(cc1OCC1COCCO1)CC(C(C)C)n1cc(C(=O)O)c(=O)cc1-2` (stereo not given): the IC50 in data set [1] was 5.1 nM; in [3], greater than 1000 nM; in data set [4] it was 18.2 nM. In data set [2], the CC50 at 144 h is greater than 50000 nM.

Turning to `COc1cc2c(cc1OC[C@@H]1COc3cccnc3O1)C[C@H](C(C)C)n1cc(C(=O)O)c(=O)cc1-2`, the EC50 in data set [1] was 882 nM; in [3], 3190 nM; in data set [4] it was 882 nM.
